Results reported in ChEMBL document CHEMBL3286278, “Antifungal and cytotoxic 2-acylcyclohexane-1,3-diones from Peperomia alata and P. trineura” (J Nat Prod, 2014).

Tests used:
[1] = tested on: Cladosporium cladosporioides; test: Antifungal activity against Cladosporium cladosporioides after 48 hrs; format: functional
[2] = tested on: Cladosporium sphaerospermum; test: Antifungal activity against Cladosporium sphaerospermum after 48 hrs; format: functional
[3] = tested on: K562; test: Cytotoxicity against human K562 cells after 48 hrs by MTT assay; format: functional, cell-based; settings: K562, 48 h
[4] = Cytotoxicity against human NALM6 cells after 48 hrs by MTT assay; format: functional, cell-based; settings: NALM-6, 48 h

Compound	Activity [1]	Activity [2]	IC50 [3]	IC50 [4]
O=C(CC/C=C/c1ccccc1)C1=C(O)CCCC1=O	0.25 µg	0.25 µg		
CCCCC/C=C\CCCCCCCCC(=O)C1=C(O)CC[C@@H](O)C1=O	1 µg	10 µg	26 µM	14.3 µM
CCCCC/C=C\CCCCCCCCC(=O)C1=C(O)CCCC1=O	10 µg	25 µg		
O=C1CCCC(O)=C1C(=O)CCc1ccc2c(c1)OCO2	0.5 µg	0.5 µg		
O=C(CCCCCCCCCCCCCCc1ccc2c(c1)OCO2)C1=C(O)CCCC1=O	5 µg	5 µg		
O=C(CCCCCCCC/C=C/c1ccccc1)C1=C(O)CCCC1=O	5 µg	25 µg		
Clc1ccc(COC(Cn2ccnc2)c2ccc(Cl)cc2Cl)c(Cl)c1 (stereo not given) [MICONAZOLE]	1 µg	1 µg		
NYSTATIN	1 µg	1 µg		
O=C(CCCCCCCCCCCCCCCCc1ccc2c(c1)OCO2)C1=C(O)CCCC1=O	5 µg	5 µg		
